Reference: patent US9611232B2, “Oxazolidinone and imidazolidinone compounds” (Hoffmann-La Roche Inc., priority 2012, dated 2017)
Several values for one entry are separate records, joined by “and”; a condition that tells them apart may be missing. Identical values can stand only once.

target: h KCa3.1 (Homo sapiens (Human), UniProt O15554); test: Electrophysiology patch clamp (PatchXpress); assay type: cell-based; conditions: CHO cells over-expressing h KCa3.1, read-out: IC50 Ephys
Procedure: Electrophysiology Patch Clamp
Compounds were tested using a PatchXpress® (Model 7000A, Molecular Devices, Union City Calif.) on CHO cells over-expressing h KCa3.1 at ChanTest Corporation, 14656 Neo Parkway, Cleveland, Ohio.

| IC50 | Structure (SMILES) |
| --- | --- |
| 62 nM | CCOC(=O)CN1C(=O)O[C@@H](c2cccc(C(F)(F)F)c2)[C@H]1c1ccc(F)cc1 (racemic) [Example 32, [(4RS,5SR)-4-(4-Fluoro-phenyl)-2-oxo-5-(3-trifluoromethyl-phenyl)-oxazolidin-3-yl]-acetic acid ethyl ester] |
| 58 nM | NC(=O)CN1C(=O)OC(c2ccc(F)cc2)(c2ccc(F)cc2)[C@@H]1c1ccccc1 [Example 1, (S)-2-(5,5-bis(4-fluorophenyl)-2-oxo-4-phenyloxazolidin-3-yl)acetamide] |
| 45 nM | NC(=O)CN1C(=O)OC(c2ccc(F)cc2)(c2ccc(F)cc2)[C@@H]1c1ccc(F)cc1 [Example 7, 2-[(S)-4,5,5-Tris-(4-fluoro-phenyl)-2-oxo-oxazolidin-3-yl]-acetamide] |
| 22 nM | NC(=O)CN1C(=O)OC(c2ccc(F)cc2)(c2ccc(F)cc2)[C@@H]1c1ccccc1F [Example 11, 2-[(S)-5,5-Bis-(4-fluoro-phenyl)-4-(2-fluoro-phenyl)-2-oxo-oxazolidin-3-yl]-acetamide] |

target: KCa3.1 (Homo sapiens (Human), UniProt O15554); test: Thallium influx assay (FLIPR, FluxOR); assay type: cell-based; conditions: CHOK1 cells over-expressing KCa3.1; thallium (3.3 mM)/ionomycin (1 μM) activation
Procedure: The thallium influx assay was performed with CHOK1 cells over-expressing KCa3.1 obtained from Evotec and maintained in MEM Alpha medium supplemented with 10% fetal bovine serum, 100 U/ml penicillin/[…] streptomycin and 250 μg/ml G418.
CHOK1 wild type cells were passaged using F12/Ham's medium supplemented with 10% fetal bovine serum, 2 mM glutamine, 100 U/ml penicillin/[…] streptomycin. All cells were cultured in T175 flasks.
Before the day of the assay, cells were harvested from culture flasks using standard trypsin digestion. Cells were counted and densities adjusted and dispensed into 384-well poly-D-lysine coated plates at 7500 […], assay plates were incubated overnight in CO2 incubator at 37° C.
The following day, growth media was removed followed by the addition of 25 ul/well of FluxOR™ (Invitrogen) loading dye in a gluconate based assay buffer (135 mM NaGluconate,
2.5 mM Kgluconate, 2 mM CaNO3, 1 mM MgNO3, 10 mM HEPES (acid), 5 mM glucose pH adjusted to 7.4). Assay plates were incubated for 1 hour at 37° C. The loading dye was then replaced with gluconate assay buffer containing probenecid.
Compounds diluted in gluconate buffer were transferred into the assay plates (25 μl/well) followed by incubation for 20 minutes at room temperature. The assay plates were then transferred to a Fluorometric Imaging Plate Reader (FLIPR), a baseline was read for twenty second capture, followed by the addition of 25 μl/well of channel activation solution in gluconate buffer—for KCa3.1 cells thallium (3.3 mM)/ionomycin(1 μM) was used and for the wild type, ionomycin only, then fluorescence was monitored for another 90 seconds.

| IC50 | Structure (SMILES) |
| --- | --- |
| 7540 nM | CCOC(=O)CN1C(=O)O[C@@H](c2ccc(F)cc2)[C@H]1c1cccc(C(F)(F)F)c1 (racemic) [Example 31, [(4RS,5SR)-5-(4-Fluoro-phenyl)-2-oxo-4-(3-trifluoromethyl-phenyl)-oxazolidin-3-yl]-acetic acid ethyl ester] |
| 600 nM | CCOC(=O)CN1C(=O)O[C@@H](c2cccc(C(F)(F)F)c2)[C@H]1c1ccc(F)cc1 (racemic) [Example 32, [(4RS,5SR)-4-(4-Fluoro-phenyl)-2-oxo-5-(3-trifluoromethyl-phenyl)-oxazolidin-3-yl]-acetic acid ethyl ester] |
| 1560 nM | CCOC(=O)CN1C(=O)O[C@@H](c2cccc(C(F)(F)F)c2)[C@H]1c1cccc(C(F)(F)F)c1 (racemic) [Example 33] |
| 6700 nM | CCOC(=O)CN1C(=O)O[C@@H](c2ccc(F)cc2)[C@H]1c1ccc(F)cc1 (racemic) [Example 34] |
| 6600 nM | CNC(=O)CN1C(=O)O[C@@H](c2cccc(C(F)(F)F)c2)[C@H]1c1ccc(F)cc1 (racemic) [Example 36] |
| 4900 nM | CCNC(=O)CN1C(=O)O[C@@H](c2cccc(C(F)(F)F)c2)[C@H]1c1ccc(F)cc1 (racemic) [Example 37] |
| 1600 nM | N#CCN1C(=O)O[C@@H](c2cccc(C(F)(F)F)c2)[C@H]1c1ccc(F)cc1 (racemic) [Example 38] |
| 11000 nM | O=C1O[C@@H](c2cccc(C(F)(F)F)c2)[C@@H](c2ccc(F)cc2)N1Cc1ncco1 (racemic) [Example 39, (4RS,5SR)-4-(4-fluorophenyl)-3-(oxazol-2-ylmethyl)-5-(3-(trifluoromethyl)phenyl)oxazolidin-2-one] |
| 6900 nM | Cc1coc(CN2C(=O)O[C@@H](c3cccc(C(F)(F)F)c3)[C@H]2c2ccc(F)cc2)n1 (racemic) [Example 40] |
| 860 nM | NC(=O)CN1C(=O)OC(c2ccc(F)cc2)(c2ccc(F)cc2)[C@@H]1c1ccccc1 [Example 1, (S)-2-(5,5-bis(4-fluorophenyl)-2-oxo-4-phenyloxazolidin-3-yl)acetamide] |
| 830 nM | NC(=O)CN1C(=O)OC(c2ccccc2F)(c2ccccc2F)[C@@H]1c1ccccc1 [Example 2, 2-[(S)-5,5-Bis-(2-fluoro-phenyl)-2-oxo-4-phenyl-oxazolidin-3-yl]-acetamide] |
| 630 nM | NC(=O)CN1C(=O)OC(c2cccc(F)c2)(c2cccc(F)c2)[C@@H]1c1ccccc1 [Example 3, 2-[(S)-5,5-Bis-(3-fluoro-phenyl)-2-oxo-4-phenyl-oxazolidin-3-yl]-acetamide] |
| 3140 nM | CCOC(=O)CN1C(=O)OC(c2ccc(F)cc2)(c2ccc(F)cc2)C1c1ccc(F)cc1F (stereo not shown) [Example 4, [4-(2,4-Difluoro-phenyl)-5,5-bis-(4-fluoro-phenyl)-2-oxo-oxazolidin-3-yl]-acetic acid ethyl ester] |
| 660 nM and 1140 nM | NC(=O)CN1C(=O)OC(c2ccc(F)cc2)(c2ccc(F)cc2)[C@@H]1c1ccc(F)cc1F [Example 5, 2-[(S)-4-(2,4-Difluoro-phenyl)-5,5-bis-(4-fluoro-phenyl)-2-oxo-oxazolidin-3-yl]-acetamide] |
| 1340 nM | CCOC(=O)CN1C(=O)OC(c2ccc(F)cc2)(c2ccc(F)cc2)[C@@H]1c1ccc(F)cc1 [Example 6, [(S)-4,5,5-Tris-(4-fluoro-phenyl)-2-oxo-oxazolidin-3-yl]acetic acid ethyl ester] |
| 720 nM | NC(=O)CN1C(=O)OC(c2ccc(F)cc2)(c2ccc(F)cc2)[C@@H]1c1ccc(F)cc1 [Example 7, 2-[(S)-4,5,5-Tris-(4-fluoro-phenyl)-2-oxo-oxazolidin-3-yl]-acetamide] |
| 7150 nM | NC(=O)CN1C(=O)OC(c2ccc(F)cc2)(c2ccc(F)cc2)C1c1c(F)cccc1F (stereo not shown) [Example 8, 2-[4-(2,6-Difluoro-phenyl)-5,5-bis-(4-fluoro-phenyl)-2-oxo-oxazolidin-3-yl]-acetamide] |
| 6050 nM | NC(=O)CN1C(=O)OC(c2ccc(F)cc2)(c2ccc(F)cc2)C1c1cccc(F)c1 (stereo not shown) [Example 9, 2-(4-(3-fluorophenyl)-5,5-bis(4-fluorophenyl)-2-oxooxazolidin-3-yl)acetamide] |

| IC50 | Structure (SMILES) |
| --- | --- |
| 1900 nM | CCOC(=O)CN1C(=O)OC(c2ccc(F)cc2)(c2ccc(F)cc2)[C@@H]1c1ccccc1F [Example 10, [5,5-Bis-(4-fluoro-phenyl)-4-(2-fluoro-phenyl)-2-oxo-oxazolidin-3-yl]-acetic acid ethyl ester] |
| 250 nM | NC(=O)CN1C(=O)OC(c2ccc(F)cc2)(c2ccc(F)cc2)[C@@H]1c1ccccc1F [Example 11, 2-[(S)-5,5-Bis-(4-fluoro-phenyl)-4-(2-fluoro-phenyl)-2-oxo-oxazolidin-3-yl]-acetamide] |
| 1100 nM | CCOC(=O)CN1C(=O)OC(c2ccccc2F)(c2ccccc2F)[C@@H]1c1ccccc1F [Example 12, [(S)-4,5,5-Tris-(2-fluoro-phenyl)-2-oxo-oxazolidin-3-yl]acetic acid ethyl ester] |
| 3600 nM | CCOC(=O)CN1C(=O)OC(c2cccc(F)c2)(c2cccc(F)c2)[C@@H]1c1ccccc1F [Example 14, [(S)-5,5-Bis-(3-fluoro-phenyl)-4-(2-fluoro-phenyl)-2-oxo-oxazolidin-3-yl]-acetic acid ethyl ester] |
| 1000 nM | CCOC(=O)CN1C(=O)OC(c2ccccc2)(c2ccccc2)[C@@H]1c1ccccc1F [Example 16, [(S)-4-(2-Fluoro-phenyl)-2-oxo-5,5-diphenyl-oxazolidin-3-yl]-acetic acid ethyl ester] |
| 3700 nM | NC(=O)CN1C(=O)NC(c2ccc(F)cc2)(c2ccc(F)cc2)[C@@H]1c1ccccc1 [Example 18, (S)-2-(4,4-bis(4-fluorophenyl)-2-oxo-5-phenylimidazolidin-1-yl)acetamide] |
| 2200 nM | Cc1ccccc1[C@@H]1N(CC(N)=O)C(=O)OC1(c1ccc(F)cc1)c1ccc(F)cc1 [Example 20, 2-[(S)-5,5-Bis-(4-fluoro-phenyl)-2-oxo-4-o-tolyl-oxazolidin-3-yl]-acetamide] |
| 650 nM | COC(=O)CN1C(=O)OC(c2ccc(F)cc2)(c2ccc(F)cc2)[C@@H]1c1ccccc1F [Example 21, (S)-methyl 2-(4-(2-fluorophenyl)-5,5-bis(4-fluorophenyl)-2-oxooxazolidin-3-yl)acetate] |
| 600 nM | CNC(=O)CN1C(=O)OC(c2ccc(F)cc2)(c2ccc(F)cc2)[C@@H]1c1ccccc1F [Example 22, (S)-2-(4-(2-fluorophenyl)-5,5-bis(4-fluorophenyl)-2-oxooxazolidin-3-yl)-N-methylacetamide] |
| 1960 nM | CCNC(=O)CN1C(=O)OC(c2ccc(F)cc2)(c2ccc(F)cc2)[C@@H]1c1ccccc1F [Example 23, (S)—N-ethyl-2-(4-(2-fluorophenyl)-5,5-bis(4-fluorophenyl)-2-oxooxazolidin-3-yl)acetamide] |
| 1480 nM | N#CCN1C(=O)OC(c2ccc(F)cc2)(c2ccc(F)cc2)[C@@H]1c1ccccc1F [Example 24, [(S)-5,5-Bis-(4-fluoro-phenyl)-4-(2-fluoro-phenyl)-2-oxo-oxazolidin-3-yl]-acetonitrile] |
| 10000 nM | O=C1OC(c2ccc(F)cc2)(c2ccc(F)cc2)[C@H](c2ccccc2F)N1Cc1nnc[nH]1 [Example 25, (S)-3-((4H-1,2,4-triazol-3-yl)methyl)-4-(2-fluorophenyl)-5,5-bis(4-fluorophenyl)oxazolidin-2-one] |
| 9200 nM | CCOC(=O)CN1C(=O)OC(c2ccc(F)cc2)(c2ccc(F)cc2)C1c1cccnc1 (stereo not shown) [Example 26, Ethyl 2-(5,5-bis(4-fluorophenyl)-2-oxo-4-(pyridin-3-yl)oxazolidin-3-yl)acetate] |
| 6700 nM | NC(=O)CN1C(=O)OC(c2ccc(F)cc2)(c2ccc(F)cc2)C1c1cccnc1 (stereo not shown) [Example 27, 2-(5,5-bis(4-fluorophenyl)-2-oxo-4-(pyridin-3-yl)oxazolidin-3-yl)acetamide] |
| 770 nM | NC(=O)CN1C(=O)OC(c2ccc(F)c(F)c2)(c2ccc(F)c(F)c2)[C@@H]1c1ccccc1 [Example 28, (S)-2-(5,5-bis(3,4-difluorophenyl)-2-oxo-4-phenyloxazolidin-3-yl)acetamide] |
| 6700 nM | NC(=O)CN1C(=O)OC(c2cccc(Cl)c2)(c2cccc(Cl)c2)[C@@H]1c1ccccc1 [Example 29, 2-[(S)-5,5-Bis-(3-chloro-phenyl)-2-oxo-4-phenyl-oxazolidin-3-yl]-acetamide] |
| 17500 nM | NC(=O)CN1C(=O)OC(c2ccc(F)cc2)(c2ccc(F)cc2)C1c1ccccn1 (stereo not shown) [Example 30, 2-(5,5-bis(4-fluorophenyl)-2-oxo-4-(pyridin-2-yl)oxazolidin-3-yl)acetamide] |
| 450 nM | CCOC(=O)CN1C(=O)OC(c2ccc(F)cc2)(c2ccc(F)cc2)[C@@H]1C(C)(C)C [Example 35, [(S)-4-tert-Butyl-5,5-bis-(4-fluoro-phenyl)-2-oxo-oxazolidin-3-yl]-acetic acid ethyl ester] |
